# From publication PMC5814210, “2-Amino-3-methylcarboxy-5-heptyl-thiophene (TJ191) is a selective anti-cancer small molecule that targets low TβRIII-expressing malignant T-cell leukemia/lymphoma cells” (Oncotarget, 2017)
# Read-outs that look alike come from different tables or passages of the source.
# Tests used:
# [1] = system: PBMCs; experiment: Proliferation assay, PBMCs; format: cell-based, human; conditions: PBMCs stimulated with IL-2 and phytohemagglutinin, three days, cell counting, read-out: IC50 (50% inhibition of cell growth)
# Procedure: (§1) PBMCs were isolated from Buffy coats obtained from healthy blood donors (after receiving informed consent) using lymphoprep according to the manufacturer’s instructions. PBMCs were then stimulated with interleukin-2 (2 ng/ml, R&D systems, Abingdon, UK) and phytohemagglutinin (2 µg/ml, Sigma-Aldrich) for three days and used in the experiments described below. Human T-cell leukemia/lymphoma cell lines CCRF-CEM (referred to as CEM), JURKAT, MOLT-3, MOLT-4, SUP-T1, MT-2, MT-4, C8166, HSB-2, and HUT-78 were obtained from ATCC (Middlesex, UK). Cells were cultured in RPMI-1640 medium supplemented with 10% fetal bovine serum (FBS, Gibco, Erembodegem, Belgium) and 2 mM L-glutamine (Gibco).
# (§2) Human T-cell leukemia/lymphoma and prostate cancer cell lines were seeded into 96-well plates at a density of 60 × 10^3 and 20 × 10^3 cells/well respectively, and treated with 5-fold dilutions of TJ191, cladribine, 6-MP, ara-C, 6-TG, adriamycine or endoxan. 200 × 10^3 PBMCs/well were seeded and treated as indicated above. After three days, cells were counted using the coulter cell counter (Analis, Belgium). The IC50 value refers to the compound concentration that causes 50% inhibition of cell growth.
# [2] = system: TβRIII KO1 and KO2 HUT-78 cells; experiment: Proliferation assay, TβRIII knock-out HUT-78 cells (KO1 and KO2); format: cell-based, human; conditions: three days, cell counting
# Procedure: as §2
# [3] = system: CEM cells; experiment: Proliferation assay, CEM cells; format: cell-based, human; conditions: three days, cell counting, read-out: IC50 (50% inhibition of cell growth)
# Procedure: as §1, with “(Gibco). […] After three days, cells were counted using the coulter cell counter (Analis, Belgium). The IC50 value refers to the compound concentration that causes 50% inhibition of cell growth.” for “(Gibco).”
# [4] = system: JURKAT cells; experiment: Proliferation assay, JURKAT cells; format: cell-based, human; conditions: three days, cell counting, read-out: IC50 (50% inhibition of cell growth)
# Procedure: as §1, with “(Gibco). […] After three days, cells were counted using the coulter cell counter (Analis, Belgium). The IC50 value refers to the compound concentration that causes 50% inhibition of cell growth.” for “(Gibco).”
# [5] = system: MOLT-3 cells; experiment: Proliferation assay, MOLT-3 cells; format: cell-based, human; conditions: three days, cell counting, read-out: IC50 (50% inhibition of cell growth)
# Procedure: as §1, with “(Gibco). […] After three days, cells were counted using the coulter cell counter (Analis, Belgium). The IC50 value refers to the compound concentration that causes 50% inhibition of cell growth.” for “(Gibco).”
# [6] = system: MOLT-4 cells; experiment: Proliferation assay, MOLT-4 cells; format: cell-based, human; conditions: three days, cell counting, read-out: IC50 (50% inhibition of cell growth)
# Procedure: as §1, with “(Gibco). […] After three days, cells were counted using the coulter cell counter (Analis, Belgium). The IC50 value refers to the compound concentration that causes 50% inhibition of cell growth.” for “(Gibco).”
# [7] = system: SUP-T1 cells; experiment: Proliferation assay, SUP-T1 cells; format: cell-based, human; conditions: three days, cell counting, read-out: IC50 (50% inhibition of cell growth)
# Procedure: as §1, with “(Gibco). […] After three days, cells were counted using the coulter cell counter (Analis, Belgium). The IC50 value refers to the compound concentration that causes 50% inhibition of cell growth.” for “(Gibco).”
# [8] = system: MT-2 cells; experiment: Proliferation assay, MT-2 cells; format: cell-based, human; conditions: three days, cell counting, read-out: IC50 (50% inhibition of cell growth)
# Procedure: as §1, with “(Gibco). […] After three days, cells were counted using the coulter cell counter (Analis, Belgium). The IC50 value refers to the compound concentration that causes 50% inhibition of cell growth.” for “(Gibco).”
# [9] = system: C8166 cells; experiment: Proliferation assay, C8166 cells; format: cell-based, human; conditions: three days, cell counting, read-out: IC50 (50% inhibition of cell growth)
# Procedure: as §1, with “(Gibco). […] After three days, cells were counted using the coulter cell counter (Analis, Belgium). The IC50 value refers to the compound concentration that causes 50% inhibition of cell growth.” for “(Gibco).”
# [10] = system: HSB-2 cells; experiment: Proliferation assay, HSB-2 cells; format: cell-based, human; conditions: three days, cell counting, read-out: IC50 (50% inhibition of cell growth)
# Procedure: as §1, with “(Gibco). […] After three days, cells were counted using the coulter cell counter (Analis, Belgium). The IC50 value refers to the compound concentration that causes 50% inhibition of cell growth.” for “(Gibco).”
# [11] = system: HUT-78 cells; experiment: Proliferation assay, HUT-78 cells; format: cell-based, human
# Procedure: as §1, with “(Gibco). […] After three days, cells were counted using the coulter cell counter (Analis, Belgium). The IC50 value refers to the compound concentration that causes 50% inhibition of cell growth.” for “(Gibco).”
# [12] = system: MT-4 cells; experiment: Proliferation assay, MT-4 cells; format: cell-based, human; conditions: three days, cell counting, read-out: IC50 (50% inhibition of cell growth)
# Procedure: as §1, with “(Gibco). […] After three days, cells were counted using the coulter cell counter (Analis, Belgium). The IC50 value refers to the compound concentration that causes 50% inhibition of cell growth.” for “(Gibco).”
# [13] = system: CEM cells; experiment: Apoptosis assay (caspase-3 activity, NucView substrate) in CEM cells; format: cell-based, human; conditions: 0.3 µM, 24 h
# Procedure: Figure 1 Cytostatic and cytotoxic activity of TJ191 in T-cell leukemia/lymphoma cells (A) Chemical structure of TJ191. (B) Effect of TJ191 on the growth of human T-cell leukemia/lymphoma cell lines. (C) Pro-apoptotic effect of TJ191 in CEM cells. Cells were incubated with TJ191 for 8 h or 24 h and apoptosis was determined based on caspase-3 activity using the NucView […] Caspase-3 substrate, according to the manufacturer’s instruction, and fluorescence microscopy (Axiovert 200 M inverted microscope, Zeiss). Left panel, representative fluorescence microscopy images are shown; scale bars, 50 µm. Right panel, quantification of the apoptosis rate is shown. Bars represent the mean percentage of cells stained positive for caspase-3 of three different sections; bars, ± S.E.M. Data are representative of two independent experiments.
# 6 × 10^5 CEM cells/well were seeded into 96-well plates and treated with TJ191 in the presence of 2 µM NucView 488 caspase substrate (Biotium, Hayward, CA). When cells undergo apoptosis, the caspase substrate is cleaved by activated caspase-3/7 to release the DNA dye NucView 488, which stains the nucleus with bright green fluorescence. Cells were fixed at indicated times in 2% paraformaldehyde for 10 min at room temperature and analyzed for NucView 488 staining using a Carl Zeiss Axiovert 200 M inverted microscope (Zeiss, Göttingen, Germany).
# [14] = system: CEM-R cells; experiment: Proliferation assay, TJ191-selected resistant CEM cells (CEM-R); format: cell-based, human; conditions: selected one month at 100-fold IC50 concentration of TJ191; three days growth
# Procedure: as §2
# [15] = Water solubility; format: physicochemical; conditions: precludes in vivo testing
# [16] = system: PBMCs; parameters: method as in PMID 28365318; conditions: read-out: IC50, growth of PBMCs; cited from earlier work
# [17] = system: primary human fibroblasts; parameters: method as in PMID 28365318; conditions: read-out: IC50, growth of primary human fibroblasts; cited from earlier work
# [18] = system: tumor cell lines; parameters: method as in PMID 28365318; conditions: cited from earlier work
compound,measurement,setting,value
"Nc1nc(Cl)nc2c1ncn2[C@H]1C[C@H](O)[C@@H](CO)O1 [cladribine, Cladribine]",IC50,"[1]; Homo sapiens, PBMC, 72 h",180 ± 90 nM
"O=P1(N(CCCl)CCCl)NCCCO1 (stereo not drawn) [endoxan, cyclophosphamide, reference compound]",Change of IC50 in TβRIII KO1 and KO2 cells compared with parental or scrambled control HUT-78 cells,[2],no significant difference
2-amino-3-methylcarboxy-5-heptyl-thiophene [TJ191],IC50,[3],130 ± 20 nM
same,IC50,[4],130 ± 80 nM
same,IC50,[5],260 ± 190 nM
same,IC50,[6],220 ± 110 nM
same,IC50,[7],1500 ± 20 nM
same,IC50,[8],320 ± 86 nM
same,IC50,[9],3100 ± 500 nM
same,IC50,[10],260 ± 160 nM
same,IC50,"[11]; HUT-78 cells (parental), three days, cell counting, read-out: IC50 (50% inhibition of cell growth)",17000 ± 10000 nM
same,"Fold less sensitive, parental HUT-78 versus CEM cells",[11]; ratio of IC50 HUT-78 to IC50 CEM,130 fold
same,IC50,[12],47000 ± 5000 nM
same,Maximum apoptotic rate (cells positive for caspase-3),[13],~80%
same,Reduced sensitivity of CEM-R compared with wild-type CEM,[14],~100 fold
same,Change of IC50 in TβRIII KO1 and KO2 cells compared with parental or scrambled control HUT-78 cells,[2],reduced at least four- to five-fold
same,Water solubility,[15],relative water insolubility
same,IC50,[16],> 100000 nM
same,IC50,[17],> 100000 nM
same,IC50,"[18]; drug-insensitive tumor cell lines, read-out: IC50 in drug-insensitive tumor cell lines",~60000 nM
same,IC50,"[18]; drug-sensitive tumor cell lines, read-out: IC50 in drug-sensitive tumor cell lines",~100 nM
"Nc1ccn([C@@H]2O[C@H](CO)[C@@H](O)[C@@H]2O)c(=O)n1 [ara-C, 1-β-D-arabinofuranosyl cytosine]",IC50,"[1]; Homo sapiens, PBMC, 72 h",880 ± 600 nM
"Nc1nc2nc[nH]c2c(=S)[nH]1 [6-TG, 6-thioguanine]",IC50,"[1]; Homo sapiens, PBMC, 72 h",570 ± 270 nM
COc1cccc2c1C(=O)c1c(O)c3c(c(O)c1C2=O)C[C@@](O)(C(=O)CO)C[C@@H]3O[C@H]1C[C@H](N)[C@H](O)[C@H](C)O1 [adriamycine],IC50,[1],79 ± 62 nM
